In US9034861B2, “MEK inhibitors useful in the treatment of diseases” (Allomek Therapeutics LLC, priority 2009, dated 2015):
Like-named read-outs stand apart in the source and are kept apart here. Each block holds one compound with its values, some of them ahead of it.

Experiments:
[1] = target: T1, recombinant full-length human GST-MEK1 (Homo sapiens, UniProt Q02750); experiment: MEK Enzyme Inhibitory Assay (ADP-Glo); format: biochemical
T1 construct: Purified recombinant full-length human GST-MEK1; GST; purchased Cell Signaling Technology, Inc (Beverly, Mass., USA)
T1 sequence (Q02750 whole entry): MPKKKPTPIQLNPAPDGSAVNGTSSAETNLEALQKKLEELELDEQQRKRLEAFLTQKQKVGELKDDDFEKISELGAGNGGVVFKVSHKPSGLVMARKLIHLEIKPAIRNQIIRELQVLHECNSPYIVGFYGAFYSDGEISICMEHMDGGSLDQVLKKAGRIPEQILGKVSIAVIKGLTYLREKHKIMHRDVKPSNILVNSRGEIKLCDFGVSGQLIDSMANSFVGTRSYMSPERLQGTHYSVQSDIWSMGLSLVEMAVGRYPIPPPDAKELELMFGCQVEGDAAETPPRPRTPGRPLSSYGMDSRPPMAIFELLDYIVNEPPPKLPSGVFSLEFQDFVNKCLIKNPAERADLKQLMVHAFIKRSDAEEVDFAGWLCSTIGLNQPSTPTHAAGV
Description: Materials and preparation of reagents: Purified recombinant full-length human GST-MEK1 was purchased from Cell Signaling Technology, Inc (Beverly, Mass., USA). MAP kinase substrate Erk1/Erk2 peptide was purchased from Enzo Life Sciences (Plymouth Meeting, Pa., USA).
Determination of enzymatic activity: Compounds were diluted three-fold in dimethylsulfoxide (DMSO) ranging from 1 mM to 1.37 μM concentration. A typical 20-microliter assay contained 80 ng MEK1, 4 μg Erk1/Erk2 peptide, 100 μM or 1 mM ATP, 1 μM to 1.37 nM test compound in 1× assay buffer containing 5 mM MOPS, pH 7.2, 2.5 mM β-glycerophosphate, 1 mM EGTA, 0.4 mM EDTA, 5 mM MgCl2, 0.05 mM DTT. Enzyme reaction was incubated at room temperature for 90 minutes. At the end of kinase reaction, 20 μL of ADP-Glo reagent (Promega, Madison, Wis., USA) was added and incubated at room temperature for 40 minutes. Forty μL of kinase detection reagent (Promega) was added and incubated at room temperature for 1 h. Chemiluminescence was read and IC50s calculated using SoftMax software.

[2] = system: HT29 cells; experiment: Proliferation / cell survival assay (CellTiterGlo, 72 hour); format: cell-based
Description: (§1) In vitro studies of variety of tumor cells lines with prevalent mutations in RAS/RAF genes were performed for anti-proliferative activity (functional assay). This was compared with wild type cell line for selectivity. MEK kinase assay was performed in the presence and in the absence of ATP to define its allosteric inhibitory mode of action; Effect on ERK phosphorylation was studied to establish its cellular mechanism of action.
(§2) Colo205, Caki-1, HepG2, HCT116 and HT29 cells were obtained from American Type Culture Collection. Colo205, Caki-1, HepG2 cells were grown in RPMI 1640 medium supplemented with L-glutamine (Invitrogen) and 10% Fetal Bovine Serum (Hyclone) at 37° C. in a humidified, 5% CO2 incubator. HCT116 and HT29 cells were grown in DMEM medium supplemented with L-glutamine (Invitrogen) and 10% Fetal Bovine Serum (Hyclone) at 37° C. in a humidified, 5% CO2 incubator.
(§3) Proliferation assay was done by plating 2,000 cells/well in 100 μL of DMEM/10% FBS or RPMI/10% media in a 96-well plate and incubated overnight at 37° C. in a humidified, 5% CO2 incubator. Media was replaced with fresh 100 μL of fresh RPMI/10% FBS media or DMEM/10% FBS media containing various concentrations of the compounds. Compounds were added at 3-fold dilutions, concentrations ranging from 3.3 μM to 4.5 nM. After 72 hour incubation with the compounds at 37° C. in a humidified, 5% CO2 incubator, cell viability was measured in a luminometer after the addition of 100 μL/well CellTiterGlo reagent (Promega). IC50s were calculated using SoftMax software.

[3] = system: HepG2 cells; experiment: as above; format: cell-based; details: Homo sapiens; HepG2, N-Ras mutation; average of two experiments; read-out: IC50, in vitro cell survival / proliferation
Description: as §1, §2, §3

[4] = system: Colo205 cells; experiment: as above; format: cell-based; details: Homo sapiens, COLO 205; Colo205, BRAF mutation; average of two experiments; read-out: IC50, in vitro cell survival / proliferation
Description: as §1, §2, §3

[5] = system: Caki-1 cells; experiment: as above; format: cell-based; details: Homo sapiens; Caki (Caki-1), WT; average of two experiments; read-out: IC50, in vitro cell survival / proliferation
Description: as §1, §2, §3

[6] = system: HCT116 cells; experiment: as above; format: cell-based; details: Homo sapiens, HCT-116; HCT116, K-Ras mutation; average of two experiments; read-out: IC50, in vitro cell survival / proliferation
Description: as §1, §2, §3

[7] = Homo sapiens, HT-29, HT29, BRAF mutation, average of two experiments, read-out: IC50, in vitro cell survival / proliferation
[8] = Homo sapiens, HT-29, HT29 proliferation, class symbols, read-out: HT29 IC50

IC50 [1]: 21 nM
SMILES: O=S1(=O)Nc2c(cc(F)c(F)c2Nc2ccc(I)cc2F)OCC(O)C(O)CC12CC2 (racemic) [Example 8]
IC50 [2, 7]: 21 nM
IC50 [2, 8]: < 100 nM
IC50 [3]: 15 nM
IC50 [4]: 17 nM
IC50 [5]: > 1000 nM
IC50 [6]: 544 nM

SMILES: O=S1(=O)Nc2c(cc(F)c(F)c2Nc2ccc(I)cc2F)OCC(O)C(O)CC12CC2 (single isomer, unassigned) [Example 8a]
IC50 ([2]; HT29 proliferation, class symbols, read-out: HT29 IC50): < 100 nM

SMILES: O=S1(=O)Nc2c(cc(F)c(F)c2Nc2ccc(I)cc2F)OCC(O)C(O)CC12CC2 (single isomer, unassigned) [Example 8b]
IC50 [2, 8]: 100 to 500 nM

SMILES: O=S1(=O)Nc2c(cc(F)c(F)c2Nc2ccc(I)cc2F)OC/C=C/CC12CC2 [Example 1]
IC50 [2, 8]: 100 to 500 nM

SMILES: O=S1(=O)Nc2c(cc(F)c(F)c2Nc2ccc(Br)cc2F)OCC(O)C(O)CC12CC2 (centres unmarked) [Example 9]
IC50 [2, 8]: > 500 nM

SMILES: O=S1(=O)Nc2c(cc(F)c(F)c2Nc2ccc(I)cc2)OCC(O)C(O)CC12CC2 (centres unmarked) [Example 10]
IC50 [2, 8]: 100 to 500 nM

SMILES: O=S1(=O)Nc2c(cc(F)c(F)c2Nc2ccc(I)cc2Cl)OCC(O)C(O)CC12CC2 (centres unmarked) [Example 11]
IC50 [2, 8]: 100 to 500 nM

SMILES: O=S1(=O)Nc2c(Nc3ccc(I)cc3F)cc(F)cc2OCC(O)C(O)CC12CC2 (centres unmarked) [Example 13]
IC50 [2, 8]: < 100 nM

SMILES: COc1cc(F)c(NS(=O)(=O)C2(CC(O)CO)CC2)c(Nc2ccc(I)cc2F)c1F (centres unmarked) [Example 15, N-(3,6-difluoro-2-(2-fluoro-4-iodophenylamino)-4-methoxyphenyl)-1-(2,3-dihydroxypropyl)cyclopropane-1-sulfonamide]
IC50 [2, 8]: 100 to 500 nM

SMILES: COc1cc(F)c(NS(=O)(=O)C2(CC(O)CO)CC2)c(Nc2ccc(Br)cc2F)c1F (centres unmarked) [Example 16]
IC50 [2, 8]: > 500 nM

SMILES: COc1cc(F)c(NS(=O)(=O)C2(CC(O)CO)CC2)c(Nc2ccc(I)cc2F)c1 (centres unmarked) [Example 17]
IC50 [2, 8]: < 100 nM

SMILES: O=S1(=O)Nc2c(cc(F)c(F)c2Nc2ccc(I)cc2F)OCCCCC12CC2 [Example 19]
IC50 [2, 8]: > 500 nM

SMILES: COc1cc(F)c(F)c(Nc2ccc(I)cc2F)c1NS(=O)(=O)C1(C[C@H](O)CO)CC1 [RDEA 119, reference compound]
IC50 [2, 7]: 20 nM
IC50 [3]: 17 nM
IC50 [4]: 20 nM
IC50 [5]: > 1000 nM
IC50 [6]: 461 nM
